Source: the supplement of paper PMC11061612

Experiments:
Assay in all cases: combination Emax (second highest fraction inhibited in the dose matrix, 72 h); higher = more inhibition; extreme values may be limits of the assay
[1] = test system: 639-V (Bladder Carcinoma)
Procedure, shortened: (§1)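 Bliss excess equals the observed combination effect minus the expected value EA + EB − EA·EB, where EA and EB are the effects of each agent alone. Combination Emax is the second-highest inhibition within the matrix. Inhibition was scaled from CellTiter-Glo 2.0 luminescence, with 0 set by vehicle wells and 1 by blank wells, after 72 hours of two-drug dosing of cells plated in 1536-well plates.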

[2] = test system: SW1271 (Small Cell Lung Carcinoma)
Procedure, shortened: as §1

NCI-H2795 (Mesothelioma) = test system: NCI-H2795 (Mesothelioma)
Procedure, shortened: as §1

NB14 (Neuroblastoma) = test system: NB14 (Neuroblastoma)
Procedure, shortened: as §1

[3] = test system: UMC-11 (Other Solid Carcinomas)
Procedure, shortened: as §1

[4] = test system: HCC-15 (Squamous Cell Lung Carcinoma)
Procedure, shortened: as §1

[5] = test system: EN (Endometrial Carcinoma)
Procedure, shortened: as §1

[6] = test system: SU-DHL-6 (B-Cell Non-Hodgkin's Lymphoma)
Procedure, shortened: as §1

[7] = test system: PCI-30 (Head and Neck Carcinoma)
Procedure, shortened: as §1

[8] = test system: CAL-54 (Kidney Carcinoma)
Procedure, shortened: as §1

[9] = test system: CAL-51 (Breast Carcinoma)
Procedure, shortened: as §1

SH-4 (Melanoma) = test system: SH-4 (Melanoma)
Procedure, shortened: as §1

[10] = test system: 8305C (Thyroid Gland Carcinoma)
Procedure, shortened: as §1

[11] = test system: NCI-H747 (Colorectal Carcinoma)
Procedure, shortened: as §1

COLO-829 (Melanoma) = test system: COLO-829 (Melanoma)
Procedure, shortened: as §1

[12] = test system: RKO (Colorectal Carcinoma)
Procedure, shortened: as §1

NCI-H2461 (Mesothelioma) = test system: NCI-H2461 (Mesothelioma)
Procedure, shortened: as §1

[13] = test system: NCI-H69 (Small Cell Lung Carcinoma)
Procedure, shortened: as §1

[14] = test system: RPMI-6666 (Non-Cancerous)
Procedure, shortened: as §1

[15] = test system: HARA (Squamous Cell Lung Carcinoma)
Procedure, shortened: as §1

Compound	combination Emax [1]	combination Emax [2]	combination Emax (NCI-H2795 (Mesothelioma))	combination Emax (NB14 (Neuroblastoma))	combination Emax [3]	combination Emax [4]	combination Emax [5]	combination Emax [6]	combination Emax [7]	combination Emax [8]	combination Emax [9]	combination Emax (SH-4 (Melanoma))	combination Emax [10]	combination Emax [11]	combination Emax (COLO-829 (Melanoma))	combination Emax [12]	combination Emax (NCI-H2461 (Mesothelioma))	combination Emax [13]	combination Emax [14]	combination Emax [15]
CC(=O)c1c(C)c2cnc(Nc3ccc(N4CCNCC4)cn3)nc2n(C2CCCC2)c1=O [Palbociclib] + Cn1cnc2c(F)c(Nc3ccc(Br)cc3Cl)c(C(=O)NOCCO)cc21 [Selumetinib] (first compound max 10 µM, 7x7, partner max 10 µM)	0.259	0.428	0.89	0.705	0.462	0.547	0.184	0.806	0.223	0.616	0.289	0.886	0.469	0.811	0.614	0.715	0.395	0.487	0.65	0.499
Cn1cnc2c(F)c(Nc3ccc(Br)cc3Cl)c(C(=O)NOCCO)cc21 [Selumetinib] + CCN(CCO)CCCOc1ccc2c(Nc3cc(CC(=O)Nc4cccc(F)c4)[nH]n3)ncnc2c1 [AZD2811] (first compound max 10 µM, 7x7, partner max 1 µM)	0.342	0.485	0.858	0.866	0.818	0.799	0.569	0.385	0.233	0.382	0.479	0.906	0.438	0.793	0.506	0.838	0.397	0.548	0.557	0.409
CN(C)CCCOc1ccc(-c2ccc3ncc4c(c3c2)n(C2CCOCC2)c(=O)n4C)cn1 [AZD0156] + C[C@@H]1COCCN1C2=NC(=NC(=C2)C3(CC3)[S@](=N)(=O)C)C4=C5C=CNC5=NC=C4 [AZD6738] (first compound max 1 µM, 7x7, partner max 10 µM)	0.35	0.595	0.7	0.979	0.642	0.146	0.581	0.629	0.659	0.65	0.95	0.465	0.506	0.266	0.159	0.879	0.71	0.448	0.861	0.908
COc1cccc(OCCCN)c1-c1cc(Nc2cnc(C#N)cn2)n[nH]1 [Prexasertib] + O=C(c1cc(Cc2n[nH]c(=O)c3ccccc23)ccc1F)N1CCN(C(=O)C2CC2)CC1 [Olaparib] (first compound max 1 µM, 7x7, partner max 10 µM)	0.868	0.686	0.674	0.986	0.902	0.284	0.726	0.653	0.548	0.792	0.86	0.611	0.785	0.422	0.281	0.874	0.652	0.696	0.959	0.964
COc1nnc2ccc(N3CCC(c4ccc(OCCN5CCN(C)C(=O)[C@H]5C)cc4)CC3)nn12 [AZD5153] + C[C@@H]1COCCN1C2=NC(=NC(=C2)C3(CC3)[S@](=N)(=O)C)C4=C5C=CNC5=NC=C4 [AZD6738] (first compound max 1 µM, 7x7, partner max 10 µM)	0.813	0.57	0.801	0.97	0.912	0.513	0.584	0.968	0.404	0.823	0.993	0.666	0.674	0.809	0.259	0.923	0.649	0.735	0.834	0.832
Cc1nc(Nc2ncc(C(=O)Nc3c(C)cccc3Cl)s2)cc(N2CCN(CCO)CC2)n1 [Dasatinib] + CC(=O)Nc1cccc(-n2c(=O)n(C3CC3)c(=O)c3c(Nc4ccc(I)cc4F)n(C)c(=O)c(C)c32)c1 [Trametinib] (first compound max 2 µM, 7x7, partner max 1 µM)	0.466	0.928	0.972	0.465	0.136	0.853	0.289	1	0.643	0.958	0.43	0.935	0.763	0.909	0.672	0.885	0.431	0.124	0.686	0.531
Cn1cnc2c(F)c(Nc3ccc(Br)cc3Cl)c(C(=O)NOCCO)cc21 [Selumetinib] + C=CCn1c(=O)c2cnc(Nc3ccc(N4CCN(C)CC4)cc3)nc2n1-c1cccc(C(C)(C)O)n1 [AZD1775] (first compound max 10 µM, partner max 1 µM)	0.455	0.565	0.851	1	0.584	0.612	0.587	0.616	0.173	0.643	0.893	0.94	0.481	0.793	0.481	0.904	0.569	0.133	0.829	0.919
CCN(CCO)CCCOc1ccc2c(Nc3cc(CC(=O)Nc4cccc(F)c4)[nH]n3)ncnc2c1 [AZD2811] + O=C(c1cc(Cc2n[nH]c(=O)c3ccccc23)ccc1F)N1CCN(C(=O)C2CC2)CC1 [Olaparib] (first compound max 1 µM, 7x7, partner max 10 µM)	0.237	0.17	0.395	0.889	0.75	0.755	0.434	0.365	0.265	0.223	0.314	0.265	0.169	0.232	0.254	0.276	0.278	0.572	0.625	0.318
Cc1c2c(nn1C)CSCc1cc(n(C)n1)CSc1cc(c3ccccc3c1)OCCCc1c(C(=O)O)n(C)c3c-2c(Cl)ccc13 [AZD5991] + CCN(CCO)CCCOc1ccc2c(Nc3cc(CC(=O)Nc4cccc(F)c4)[nH]n3)ncnc2c1 [AZD2811] (first compound max 1 µM, 7x7, partner max 1 µM)	0.368	0.176	0.762	0.953	0.949	0.783	0.866	1	0.284	0.234	0.66	0.336	0.365	0.311	0.269	0.349	0.335	0.623	0.797	0.776
CC(=O)c1c(C)c2cnc(Nc3ccc(N4CCNCC4)cn3)nc2n(C2CCCC2)c1=O [Palbociclib] + Cc1c2c(nn1C)CSCc1cc(n(C)n1)CSc1cc(c3ccccc3c1)OCCCc1c(C(=O)O)n(C)c3c-2c(Cl)ccc13 [AZD5991] (first compound max 10 µM, 7x7, partner max 1 µM)	0.269	0.301	0.823	0.822	0.638	0.247	0.566	1	0.276	0.583	0.357	0.314	0.666	0.608	0.388	0.472	0.377	0.471	0.73	0.559
CC(=O)Nc1cccc(-n2c(=O)n(C3CC3)c(=O)c3c(Nc4ccc(I)cc4F)n(C)c(=O)c(C)c32)c1 [Trametinib] + Cc1nc(-c2cn3c(n2)-c2ccc(-c4cnn(C(C)(C)C(N)=O)c4)cc2OCC3)n(C(C)C)n1 [Taselisib] (first compound max 1 µM, 7x7, partner max 10 µM)	0.718	0.653	1	0.822	0.355	0.987	0.681	1	0.627	0.763	0.886	0.999	0.945	0.952	0.942	0.956	0.587	0.688	0.675	0.818
Cc1cc2ncnn2cc1Nc1ncc2c(n1)n(C1CCOCC1)c(=O)n2C [AZD7648] + O=C(c1cc(Cc2n[nH]c(=O)c3ccccc23)ccc1F)N1CCN(C(=O)C2CC2)CC1 [Olaparib] (first compound max 10 µM, 7x7, partner max 10 µM)	0.182	0.24	0.421	0.508	0.244	0.129	0.301	0.346	0.198	0.218	0.265	0.179	0.31	0.241	0.119	0.242	0.278	0.337	0.584	0.314
CN(CCO)CC[C@H](CSc1ccccc1)Nc1ccc(S(=O)(=O)NC(=O)c2ccc(N3CCC([C@@H](O)c4ccccc4-c4ccc(Cl)cc4)CC3)cc2)cc1S(=O)(=O)C(F)(F)F [AZD4320] + C=CCn1c(=O)c2cnc(Nc3ccc(N4CCN(C)CC4)cc3)nc2n1-c1cccc(C(C)(C)O)n1 [AZD1775] (first compound max 1 µM, partner max 1 µM)	0.377	0.814	0.53	1	0.632	0.946	0.567	1	0.323	0.827	0.907	0.5	0.7	0.446	0.265	0.617	0.782	0.858	1	0.887
